Assays:
[1] = molecular target: T1, Connexin46 (Cx46) hemichannel (Homo sapiens, UniProt Q9Y6H8); experiment: DAPI uptake dose response in Cx46tGFP HeLa cells; whole-cell patch clamp ([…] KI04 decreased currents); assay type: cell-based
T1 construct: gene GJA3; human Cx46tGFP (turbo GFP fusion) expressed in HeLa cells

[2] = molecular target: T1, Connexin46 (Cx46) hemichannel; experiment: DAPI uptake dose response in Cx46tGFP HeLa cells; assay type: cell-based

Work on `CCCCCCCCCCCC(=O)NC[C@@H]1O[C@H](O[C@H]2[C@H](O)[C@@H](O[C@H]3O[C@H](CO)[C@@H](O)[C@H](N)[C@H]3O)[C@H](N)C[C@@H]2N)[C@H](O)[C@@H](O)[C@@H]1O` [KI04] yielded an IC50 [1] of about 7.7 µM.

With `NC[C@H]1O[C@H](O[C@H]2[C@H](O)[C@@H](O[C@H]3O[C@H](CO)[C@@H](O)[C@H](N)[C@H]3O)[C@H](N)C[C@@H]2N)[C@H](O)[C@@H](O)[C@@H]1O` [kanamycin] the IC50 [2] was 1.7 µM.
